Test results reported in article PMC4992173, “Divergent synthesis and identification of the cellular targets of deoxyelephantopins” (Nature Communications, 2016).

Biological target: human PPARγ
Test: Gel-based PPARγ binding kinetics (Kitz and Wilson)
Conditions: recombinant PPARγ, 10-60 min preincubation, 24c-Cy3 readout, n=3
Method: Briefly, recombinant human PPARγ was pretreated with compounds at 20 μM concentration followed by the probe 24c-Cy3. […] Assuming covalent bond formation with PPARγ, we applied the method of Kitz and Wilson[52] to determine the kinetic values Ki and kinact for deoxyelephantopin and compound 19a (Supplementary Fig. 17). We observed clear time-dependent shift in half-maximal inhibitory concentration (IC50) values characteristic for an irreversible mode of binding.
Supplementary figure 17: Determination of the kinetic values Ki and kinact for 19a and DEP as binders to human PPARγ (n = 3).
Supplementary figure 18: F γ
24c-Cy3 after pretreatment with 10 mM IAA or DMSO. […]
for 30 min. at 37 °C under 5% CO2 atmosphere. Cells were washed one time with PBS and fixed with 4% paraformaldehyde for 20 min. at r.t. Coverslips were washed three times with PBS, one time with water and then mounted on a slide with ProLong Gold antifade mountant with DAPI (Life Technologies). Cells were visualized with an LSM 700 confocal microscope […]
Annexin V and PI staining for cell microscopy. […]
In situ labeling experiments. […] Gels were visualized at 625 nm using a Hitachi FMBIO II Multi-View fluorescence scanner, then […]
visualization were performed as described above. Images were quantified with ImageJ and kinetics values were calculated using GraphPad Prism (V6.03). […]

Row | Compound | kinact/Ki
1 | C=C(C)C(=O)O[C@H]1CC2=C[C@H](C/C=C\[C@H]3OC(=O)C(=C)[C@H]13)OC2=O [19a] | 1,241 M^−1 min^−1
2 | C=C(C)C(=O)O[C@H]1CC2=C[C@@H](C/C(C)=C/[C@H]3OC(=O)C(=C)[C@H]13)OC2=O [deoxyelephantopin] | 680 M⁻¹ min⁻¹
